According to US20210255193A1, “LYSINE REACTIVE PROBES AND USES THEREOF” (The Scripps Research Institute, priority 2017, published 2021):

Experiments:
[1] = molecular target: T1, UBA2 SUMO-activating enzyme subunit 2 (Homo sapiens, UniProt Q9UBT2); assay: competitive isoTOP-ABPP; type: binding; conditions: 50 uM, in vitro
T1 construct: endogenous in cells; host or cells: MDA-MB-231 (soluble fraction of lysate)
T1 sequence (Q9UBT2 1-640): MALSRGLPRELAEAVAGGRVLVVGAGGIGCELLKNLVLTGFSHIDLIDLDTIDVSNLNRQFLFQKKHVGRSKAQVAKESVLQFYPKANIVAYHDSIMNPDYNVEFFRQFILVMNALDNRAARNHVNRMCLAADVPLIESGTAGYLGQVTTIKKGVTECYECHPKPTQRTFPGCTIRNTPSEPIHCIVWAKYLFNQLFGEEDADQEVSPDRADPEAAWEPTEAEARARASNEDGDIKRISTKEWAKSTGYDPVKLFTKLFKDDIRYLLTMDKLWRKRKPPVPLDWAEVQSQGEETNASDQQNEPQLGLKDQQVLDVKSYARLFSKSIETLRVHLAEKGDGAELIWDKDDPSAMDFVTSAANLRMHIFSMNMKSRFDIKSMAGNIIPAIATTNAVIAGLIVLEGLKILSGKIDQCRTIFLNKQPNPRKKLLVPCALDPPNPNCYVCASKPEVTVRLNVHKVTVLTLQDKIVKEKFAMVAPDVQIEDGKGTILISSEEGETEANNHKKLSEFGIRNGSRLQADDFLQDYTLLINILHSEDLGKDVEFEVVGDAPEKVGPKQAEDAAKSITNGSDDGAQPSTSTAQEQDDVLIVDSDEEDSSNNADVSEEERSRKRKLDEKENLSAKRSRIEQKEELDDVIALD
T1 sequence (Q9UBE0 1-346 partner): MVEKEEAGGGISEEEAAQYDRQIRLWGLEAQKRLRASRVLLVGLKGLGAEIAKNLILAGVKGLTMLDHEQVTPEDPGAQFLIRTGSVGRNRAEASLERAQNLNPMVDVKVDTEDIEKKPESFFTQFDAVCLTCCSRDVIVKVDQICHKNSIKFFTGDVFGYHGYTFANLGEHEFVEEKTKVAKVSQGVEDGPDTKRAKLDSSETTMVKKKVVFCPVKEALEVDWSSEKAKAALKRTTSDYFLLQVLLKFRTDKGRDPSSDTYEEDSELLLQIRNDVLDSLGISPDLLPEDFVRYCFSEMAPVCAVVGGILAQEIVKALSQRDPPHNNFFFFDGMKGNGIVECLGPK
Outline: (§1)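 Cell lysate treated in vitro with fragments (50 μM activated esters, 100 μM guanidinylating agents) or DMSO, labelled 1 h at ambient temperature with 0.1 mM STP-alkyne, CuAAC-tagged with light/heavy TEV tags, analysed by MS. R = DMSO/compound MS1 peak-area ratio; lysines with R≥4 called liganded.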

[2] = molecular target: T2, MAP4K5 Mitogen-activated protein kinase kinase kinase kinase 5 (Homo sapiens, UniProt Q9Y4K4); assay: competitive isoTOP-ABPP; type: binding; conditions: 50 uM, 231 sol, in vitro
T2 construct: endogenous in cells; host or cells: MDA-MB-231 (soluble fraction of lysate)
T2 sequence (Q9Y4K4 whole entry): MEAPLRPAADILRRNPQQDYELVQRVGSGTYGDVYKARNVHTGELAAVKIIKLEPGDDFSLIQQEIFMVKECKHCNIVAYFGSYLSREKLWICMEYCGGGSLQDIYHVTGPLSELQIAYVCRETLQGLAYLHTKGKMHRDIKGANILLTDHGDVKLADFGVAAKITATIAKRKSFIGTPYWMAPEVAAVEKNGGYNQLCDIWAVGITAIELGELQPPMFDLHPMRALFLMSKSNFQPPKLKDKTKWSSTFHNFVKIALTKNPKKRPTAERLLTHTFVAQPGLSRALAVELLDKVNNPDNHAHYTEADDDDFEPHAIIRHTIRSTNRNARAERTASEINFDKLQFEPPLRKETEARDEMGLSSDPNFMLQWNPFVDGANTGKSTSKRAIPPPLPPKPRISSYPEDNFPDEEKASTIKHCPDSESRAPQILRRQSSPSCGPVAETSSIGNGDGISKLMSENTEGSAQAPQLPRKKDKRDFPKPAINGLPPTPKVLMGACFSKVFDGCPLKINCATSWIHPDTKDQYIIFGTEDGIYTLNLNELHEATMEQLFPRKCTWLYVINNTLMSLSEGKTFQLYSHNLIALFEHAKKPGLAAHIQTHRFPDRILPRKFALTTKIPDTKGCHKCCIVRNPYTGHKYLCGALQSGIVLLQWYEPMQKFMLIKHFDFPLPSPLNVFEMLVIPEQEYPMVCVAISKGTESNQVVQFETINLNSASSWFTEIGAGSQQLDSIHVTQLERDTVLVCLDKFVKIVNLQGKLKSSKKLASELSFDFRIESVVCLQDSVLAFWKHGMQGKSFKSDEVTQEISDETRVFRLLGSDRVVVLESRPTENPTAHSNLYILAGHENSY
Outline: as §1

Question: `O=C(Oc1c(F)c(F)c(F)c(F)c1F)C(c1ccccc1)c1ccccc1` [fragment 20, Pentafluorophenyl 2,2-diphenylacetate] was tested. Which “R value (DMSO/fragment) for probe 1 labeling” value ([1]; Q9UBT2_K409, 231 sol) did it give?
Answer: 4.1

Question: Which “R value (DMSO/fragment) for probe 1 labeling” value ([2]; Q9Y4K4_K49) does the source give for `O=C(Oc1c(F)c(F)c(F)c(F)c1F)c1cc(C(F)(F)F)cc(C(F)(F)F)c1` [fragment 21, Pentafluorophenyl 3,5-bis(trifluoromethyl)benzoate] here?
Answer: 0.6

Question: With `O=C(CCc1cn(-c2ccccc2)nc1-c1ccccc1)Oc1ccc([N+](=O)[O-])cc1[N+](=O)[O-]` [fragment 29, 2,4-Dinitrophenyl 3-(1,3-diphenyl-1H-pyrazol-4-yl)propanoate] as the compound, how does the “isoTOP-ABPP reactivity ratio at lysine Q9Y4K4_K49” value [2] read?
Answer: 1.8

Question: With `O=C(Oc1ccc([N+](=O)[O-])cc1[N+](=O)[O-])C(c1ccccc1)c1ccccc1` [fragment 30, 2,4-Dinitrophenyl 2,2-diphenylacetate] as the compound, how does the “isoTOP-ABPP reactivity ratio at lysine Q9UBT2_K409” value ([1]; 231 sol) read?
Answer: 7.3

Question: With `O=C(Oc1ccc([N+](=O)[O-])cc1[N+](=O)[O-])c1cc(C(F)(F)F)cc(C(F)(F)F)c1` [fragment 31, 2,4-Dinitrophenyl 3,5-bis(trifluoromethyl)benzoate] as the compound, how does the “isoTOP-ABPP reactivity ratio at lysine Q9UBT2_K409” value ([1]; 231 sol) read?
Answer: 6.2

Question: Which “isoTOP-ABPP reactivity ratio at lysine Q9Y4K4_K49” value [2] does the source give for `Cn1cc(CC(=O)Oc2ccc([N+](=O)[O-])cc2[N+](=O)[O-])c2ccccc21` [fragment 32, 2,4-Dinitrophenyl 2-(1-methyl-1H-indol-3-yl)acetate] here?
Answer: 5.3

Question: `O=C(CCc1coc2cc(F)ccc2c1=O)Oc1ccc([N+](=O)[O-])cc1[N+](=O)[O-]` [fragment 36, 2,4-Dinitrophenyl 3-(7-fluoro-4-oxo-4H-chromen-3-yl)propanoate] was tested. Which “isoTOP-ABPP ratio (R) at liganded lysine Q9UBT2_K409” value ([1]; sol, 231) did it give?
Answer: 3.6
